Measured values taken from patent US4933157A, “Radioiodinated arylaliphatic ether analogues of cholesterol” (The University of Michigan, priority 1988, dated 1990).
Like-named read-outs stand apart in the source and are kept apart here.

Experiments:
[1] = in vivo; cited from earlier work
[2] = Polyacrylamide gel electrophoresis of rat plasma (plasma level studies); format: in vivo, female Sprague Dawley rats
[3] = Tissue distribution of radioactivity following IV administration of radioiodinated cholesteryl ethers to female rats; format: in vivo, female Sprague Dawley rats
Experimental: (§1) The labelled compounds ([…] ^125 I) were administered intravenously in a 2% Tween-20-saline vehicle. At various times following administration, the animals were sacrificed, and selected tissue samples were removed. The tissue samples were weighed and placed in cellulose acetate capsules. The radioactivity was then counted (85%) efficiency using a well scintillation counter (Searle 1185). The results from selected tissue samples are shown below in Tables 1 and 2. The tissue distribution of the selected cholesteryl ether is expressed as percent Kg dose per g of tissue after 30 minutes (Table 1) and after 24 hours (Table 2).

[4] = Tissue distribution of radioactivity following IV administration to male guinea pigs; format: in vivo, male Hartley guinea pigs
Experimental: as §1

[5] = Experimental: Female Sprague Dawley rats were injected with a radio-iodinated arylaliphatic cholesteryl ether analogue (^125 I) solubilized in a suitable transport agent, such as 2% Tween 20-saline. After a predetermined time period, blood samples were drawn from the rats. The plasma was separated from the red blood cells and mixed with a suitable dye (Sudan Black or Sudan Blue). The plasma samples were then subjected to polyacrylamide gel electrophoresis to separate the various fractions. The radioactivity of the various fractions were measured with a gamma counter. […] The data is expressed as a percent of total radioactivity in the gel.
Guinea pigs have a greater concentration of low density lipoproteins in their blood plasma than rats.

| SMILES | Gel fraction: Albumin ([2]; 30 minutes) | Gel fraction: Below Alb ([2]; 30 minutes) | Gel fraction: HDL Band (high density lipoproteins) ([2]; 30 minutes) | Gel fraction: LDL Band (low density lipoproteins) ([2]; 30 minutes) | Gel fraction: Stacking Gel ([2]; 30 minutes) | Gel fraction: Albumin ([2]; 24 hours) | Gel fraction: Below Alb ([2]; 24 hours) | Gel fraction: HDL Band ([2]; 24 hours) | Gel fraction: Stacking Gel ([2]; 24 hours) | Tissue distribution of radioactivity: Adrenal ([3]; 30 minutes) [% KG DOSE/G OF TISSUE] | Tissue distribution of radioactivity: Blood ([3]; 30 minutes) [% KG DOSE/G OF TISSUE] | Tissue distribution of radioactivity: Liver ([3]; 30 minutes) [% KG DOSE/G OF TISSUE] | Tissue distribution of radioactivity: Ovary ([3]; 30 minutes) [% KG DOSE/G OF TISSUE] | Tissue distribution of radioactivity: Thyroid ([3]; 30 minutes) [% KG DOSE/G OF TISSUE] | Tissue distribution of radioactivity: Adrenal ([3]; 24 hours) [% KG DOSE/G OF TISSUE] | Tissue distribution of radioactivity: Blood ([3]; 24 hours) [% KG DOSE/G OF TISSUE] | Tissue distribution of radioactivity: Liver ([3]; 24 hours) [% KG DOSE/G OF TISSUE] | Tissue distribution of radioactivity: Ovary ([3]; 24 hours) [% KG DOSE/G OF TISSUE] | Tissue distribution of radioactivity: Thyroid ([3]; 24 hours) [% KG DOSE/G OF TISSUE] | also measured |
| --- | --- | --- | --- | --- | --- | --- | --- | --- | --- | --- | --- | --- | --- | --- | --- | --- | --- | --- | --- | --- |
| CC(C)CCC[C@@H](C)[C@H]1CC[C@H]2[C@@H]3C[C@@H](C[131I])C4=C(CC[C@H](O)C4)[C@H]3CC[C@]12C [NP-59, 6-b-iodomethyl-19-norcholest-5[10]en-3b-ol] | – | – | – | – | – | – | – | – | – | – | – | – | – | – | – | – | – | – | – | metabolic loss of iodine and accumulation in the thyroid [1]: subject to metabolic loss of iodine and resulting accumulation of this iodine in the thyroid; uptake into the adrenal glands [1]: extremely slow |
| CC(C)CCC[C@@H](C)[C@H]1CC[C@H]2[C@@H]3CC=C4C[C@@H](OCc5cccc([125I])c5)CC[C@]4(C)[C@H]3CC[C@]12C [m-Iodobenzyl, m-iodobenzyl cholesteryl ether] | 0.3 ± 0.1 % OF TOTAL RADIOACTIVITY IN GEL | 0.0 ± 0.0 % OF TOTAL RADIOACTIVITY IN GEL | 53.3 ± 2.2 % OF TOTAL RADIOACTIVITY IN GEL | 41.0 ± 3.5 % OF TOTAL RADIOACTIVITY IN GEL | 5.4 ± 2.5 % OF TOTAL RADIOACTIVITY IN GEL | 1.1 ± 0.2 % OF TOTAL RADIOACTIVITY IN GEL | 0.5 ± 0.1 % OF TOTAL RADIOACTIVITY IN GEL | 45.7 ± 3.2 % OF TOTAL RADIOACTIVITY IN GEL | 21.6 ± 5.8 % OF TOTAL RADIOACTIVITY IN GEL | 1.347 ± 0.289 | 0.985 ± 0.127 | 1.414 ± 0.176 | 0.635 ± 0.036 | 0.133 ± 0.018 | 3.755 ± 0.362 | 0.070 ± 0.006 | 2.607 ± 0.072 | 1.924 ± 0.301 | 1.307 ± 0.150 | Tissue distribution of radioactivity: Adrenal ([4]; 30 min): 0.360 ± 0.019 % KG DOSE/G OF TISSUE; Tissue distribution of radioactivity: Blood ([4]; 30 min): 0.799 ± 0.041 % KG DOSE/G OF TISSUE; Tissue distribution of radioactivity: Liver ([4]; 30 min): 0.643 ± 0.044 % KG DOSE/G OF TISSUE; Tissue distribution of radioactivity: Testes ([4]; 30 min): 0.025 ± 0.002 % KG DOSE/G OF TISSUE; Tissue distribution of radioactivity: Thyroid ([4]; 30 min): 0.039 ± 0.002 % KG DOSE/G OF TISSUE; Tissue distribution of radioactivity: Adrenal ([4]; 24 hr): 7.861 ± 0.656 % KG DOSE/G OF TISSUE; Tissue distribution of radioactivity: Blood ([4]; 24 hr): 0.158 ± 0.020 % KG DOSE/G OF TISSUE; Tissue distribution of radioactivity: Liver ([4]; 24 hr): 2.023 ± 0.147 % KG DOSE/G OF TISSUE; Tissue distribution of radioactivity: Testes ([4]; 24 hr): 0.043 ± 0.010 % KG DOSE/G OF TISSUE; Tissue distribution of radioactivity: Thyroid ([4]; 24 hr): 1.546 ± 0.279 % KG DOSE/G OF TISSUE; Gel fraction: LDL Band ([5]; guinea pig plasma, IV, 24 hr): 72.2 ± 2.0 % OF TOTAL RADIOACTIVITY IN GEL; dose associated with the low density lipoproteins ([5]; guinea pig, in vivo): greater than 70 % of the dose |
| CC(C)CCC[C@@H](C)[C@H]1CC[C@H]2[C@@H]3CC=C4C[C@@H](OCCCCCCCCCCCCc5cccc([125I])c5)CC[C@]4(C)[C@H]3CC[C@]12C [m-Iodophenyldodecyl, 12-(m-iodophenyl)dodecyl cholesteryl ether] | 1.1 ± 0.2 % OF TOTAL RADIOACTIVITY IN GEL | 0.5 ± 0.1 % OF TOTAL RADIOACTIVITY IN GEL | 45.7 ± 3.2 % OF TOTAL RADIOACTIVITY IN GEL | 31.2 ± 4.0 % OF TOTAL RADIOACTIVITY IN GEL | 21.6 ± 5.8 % OF TOTAL RADIOACTIVITY IN GEL | 3.4 ± 0.7 % OF TOTAL RADIOACTIVITY IN GEL | 4.9 ± 1.3 % OF TOTAL RADIOACTIVITY IN GEL | 66.2 ± 2.6 % OF TOTAL RADIOACTIVITY IN GEL | 11.6 ± 1.3 % OF TOTAL RADIOACTIVITY IN GEL | 1.307 ± 0.177 | 1.250 ± 0.067 | 0.829 ± 0.121 | 0.936 ± 0.136 | 0.486 ± 0.085 | 3.063 ± 0.305 | 0.085 ± 0.002 | 1.779 ± 0.247 | 4.528 ± 0.816 | 6.047 ± 0.760 | Gel fraction: LDL Band ([2]; 24 hours): 14.0 ± 1.0 % OF TOTAL RADIOACTIVITY IN GEL |
